Measurements from patent US8278309B2, “Synthetic mimetics of host defense and uses thereof” (priority 2008, dated 2012).
Where a name gives a salt, the structure may show the parent alone.

How the values were obtained:
S. aureus (ATCC 13709) = assay: Mouse sepsis model, S. aureus infection; assay type: in vivo; conditions: for protection from mortality: 1 & 7 hr after inoculation, observed 6 days
Procedure: Sterile saline, vancomycin, or Compound A were administered to separate groups of 8-week old female CD-1 mice (8 mice/group) 1 and 7 hours after i.p. injections of S. aureus (ATCC 13709, 5×10^7 cfu/mL in 5% mucin, 0.5 mL/mouse). Compound A was dissolved in 50%/50% v/v sterile USP purified water/TBS. A suspension of S. aureus was prepared from colonies transferred from the TSA plate to sterile PBS. An aliquot of the stock suspension was added to 5% mucin for a final concentration of about 5×10^7 cfu/mL.

Citrobacter koseri = assay: MIC broth microdilution, Gram-negative clinical isolates; assay type: cell-based; conditions: 2-3 isolates/organism, read-out: MIC
Procedure: (§1) Compound A was evaluated in vitro in accordance with defined CLSI documents specific to the organisms (aerobic, anaerobic or yeast) tested in this study. Ampicillin, ceftazidime, cefuroxime, ciprofloxacin, linezolid, and vancomycin were tested alongside as comparator agents for aerobic bacteria; clindamycin and metronidazole were tested as comparators for anaerobes; fluconazole was tested as a comparator for yeast isolates. Stock solutions of Compound A were prepared in dimethyl sulfoxide (DMSO). Ampicillin, ceftazidime, cefuroxime, ciprofloxacin, linezolid, vancomycin, metronidazole, clindamycin, and fluconazole were prepared each according to its manufacturer's guideline.
(§2) Minimum inhibitory concentrations (MICs) in μg/ml were determined according to CLSI guideline M7-A7 by broth microdilution. All aerobes were tested using Mueller-Hinton broth medium with the exception of Streptococcus spp., which were tested using cation-adjusted Mueller-Hinton broth supplemented with 2-5% lysed horse blood.

Escherichia coli = assay: as above; assay type: cell-based; conditions: 2-3 isolates/organism, read-out: MIC
Procedure: as §1, §2

Providencia stuartii = assay: as above; assay type: cell-based; conditions: 2-3 isolates/organism, read-out: MIC
Procedure: as §1, §2

Acinetobacter spp. = assay: as above; assay type: cell-based; conditions: 2-3 isolates/organism
Procedure: as §1, §2

Haemophilus influenzae = assay: as above; assay type: cell-based; conditions: 2-3 isolates/organism, read-out: MIC
Procedure: as §1, §2

Enterobacter cloacae = assay: as above; assay type: cell-based; conditions: 2-3 isolates/organism, read-out: MIC
Procedure: as §1, §2

Klebsiella oxytoca = assay: as above; assay type: cell-based; conditions: 2-3 isolates/organism, read-out: MIC
Procedure: as §1, §2

Klebsiella pneumoniae = assay: as above; assay type: cell-based; conditions: 2-3 isolates/organism, read-out: MIC
Procedure: as §1, §2

Citrobacter freundi = assay: as above; assay type: cell-based; conditions: Citrobacter freundi; 2-3 isolates/organism; read-out: MIC
Procedure: as §1, §2

## N=C(N)NCCCCC(=O)Nc1cc(C(F)(F)F)cc(NC(=O)c2cc(C(=O)Nc3cc(C(F)(F)F)cc(NC(=O)CCCCNC(=N)N)c3O[C@H]3CCNC3)ncn2)c1O[C@H]1CCNC1 [Compound A, pyrimidine-4,6-dicarboxylic acid bis-{[3-(5-guanidino-pentanoylamino)-2-((R)-pyrrolidin-3-yloxy)-5-trifluoromethyl-phenyl]-amide}tetrahydrochloride]
S. aureus (ATCC 13709); 2×5 mg/kg i.v.
  protection from mortality: full protection
S. aureus (ATCC 13709); 2×10 mg/kg i.v.
  protection from mortality: full protection
S. aureus (ATCC 13709); 3, 5, 10 mg/kg/dose i.v.
  efficacy relative to vancomycin treatment group: comparable to the vancomycin treatment group
Citrobacter koseri
  MIC: 1 to 2 µg/mL
Escherichia coli
  MIC: 1 to 2 µg/mL
Providencia stuartii
  MIC: 16 to 64 µg/mL
Acinetobacter spp.
  MIC: 4 µg/mL
Haemophilus influenzae
  MIC: 4 to 8 µg/mL
Enterobacter cloacae
  MIC: 0.5 to 4 µg/mL
Klebsiella oxytoca
  MIC: 2 to 8 µg/mL
Klebsiella pneumoniae
  MIC: 1 to 2 µg/mL
Citrobacter freundi
  MIC: 2 to 4 µg/mL
